In one assay the target is recombinant α-synuclein fibrils (Homo sapiens, UniProt P37840). Description: radioactive competitive binding assay with [^3H]BF2846 (Tables 1 and 2: or [^18F]7j with LBD-amplified fibrils). Conditions: Table 1; vs. [^3H]BF2846 or [^18F]7j as radioligand; NB = no binding affinity measurable; read-out: Ki. How it is done: Three concentrations of the test compounds (10 nM, 100 nM, and 1 μM) were selected and individually mixed with [^3H]BF2846 (∼4 nM). Each mixture was then separately added to 50 nM of recombinant α-syn fibrils in a working buffer (50 mM Tris-HCl, 0.01% bovine serum albumin (BSA)). The mixture (150 μL) was gently mixed via agitation, covered, and then incubated at 37 °C for 1.5 h in a non-binding 96-well plate (Corning Inc., Corning, NY, USA; catalog no. 3605). The mixture was filtered through a Unifilter-96 harvesting system (PerkinElmer Inc., Waltham, MA, USA) and then washed three times with 250 μL of ice-cold buffer containing 10 mM Tris-HCl (pH 7.4), 15 mM NaCl, and 20% EtOH. Next, 50 μL of scintillation cocktail (MicroScint-20, PerkinElmer) was added to the collected filtrate and counted on a Microbeta system (PerkinElmer Inc., Waltham, MA, USA). The total binding was measured in the absence of the tested compounds, and non-specific binding was defined by the presence of 100 nM of unlabeled BF2846 in the working buffer.
For the full curve of α-syn competition binding, [^3H]BF2846 (∼4 nM) was incubated with fixed concentrations of 50 nM α-syn fibrils and ten concentrations of the tested compounds (0.05−1000 nM). All data points were collected in three individual experiments. The equilibrium inhibition constants, Ki values, were obtained from EC50 values using the equation Ki = EC50/(1 + [radioligand]/Kd) via non-linear regression from GraphPad Prism v.9.3.1 (GraphPad Software, San Diego, CA, USA) […]
In addition, competition assays were performed with LBD-amplified fibrils and [^18F]TZ61-44 with slight modifications. The method used to produce LBD-amplified fibrils is described by Dhavale et al., and the source of the tissue was the Banner Sun Health Research Institute Brain and Body Donation Program of Sun City, Arizona. Each test compound concentration (0.001–1 µM) was individually mixed with [^18F]TZ61-44 (2 nM), and the resulting mixture was then added to 25 nM of LBD-amplified fibrils in 30 mM of Tris-HCl buffer (pH 7.4) containing 0.1% BSA. The mix was incubated for 1 h with shaking. The samples were then transferred to Multiscreen FB filter plates (Catalog MSFBN6B50, MilliporeSigma) and washed three times with cold (4 °C) buffer. The glass fiber filters containing fibril-bound radioligands were removed and counted immediately in a PerkinElmer (1450-021) Trilux MicroBeta Liquid Scintillation counter using 150 µL of Optiphase Supermix cocktail (Perkin Elmer). All data points were obtained in triplicate. The data were analyzed using Graphpad Prism software (version 10) to the obtain EC50 and Ki values by fitting the data to a one-site competition model. The synthesis of the tested compounds is described in the Supporting Information. […]
6. Alpha-Synuclein Binding Affinity Studies a). Determination of α-synuclein binding activity using radioactive competitive assay [ 3H]BF2846 Three concentrations of test compounds (10nM, 100nM, and 1μM) were selected and individually mixed with [3H]BF2846 ( ∼4 nM). Each mixture was then separately added to 50 nM of recombinant α-syn fibrils in a working buffer (50 mM Tris-HCl, 0.01% bovine serum albumin (BSA)). The mixture (150 μL) was gently mixed by agitation, covered, and then incubated at 37°C for 1.5 h in a nonbinding 96 well plate (Corning, 3605). The mixture was filtered through a Unifilter – 96 harvesting system (PerkinElmer) and then washed three times with 250 μL of ice-cold buffer containing 10 mM Tris – HCl (pH7.4), 15mM NaCl, and 20% EtOH. 50μL of scintillation cocktail (MicroScint-20, PerkinElmer) was added to the collected filtrate and counted on a Microbeta system (PerkinElmer). Total binding was measured in the absence of tested compounds, and nonspecific binding was defined by the presence of 100 nM unlabeled BF2846 in the working buffer. The data analysis was carried out in the following equation and graphically presented with a heatmap. […]
In general, Ki refers to a dissociation constant, usually derived from enzyme kinetics or from competition with a known ligand. In the case of `COc1ccc(Nc2ccc3cnccc3c2)cn1` [Compound 3e], the Ki amounted to 46 nM. `COc1ccc(Nc2ccc3ncccc3c2)cn1` [Compound 3d]: the inhibition constant Ki is > 1000 nM. Same read-out and setting: the figure for `COc1ccc(Nc2cnc3ccccc3c2)cn1` [Compound 3c] is 418 nM; for `COc1ccc(Nc2ccc3cccnc3c2)cn1` [Compound 3g] it is > 1000 nM; for `COc1ccc(Nc2ccc3ccccc3n2)cn1` [Compound 3a] it is ~100 nM. The same measure, in the same setting: the figure for `COc1ccc(Nc2ccc3ccncc3c2)cn1` [Compound 3f] is > 1000 nM.

Still in this assay, the particulars now being: Table 2; [^3H]BF2846 or [^18F]7j indirect competitive binding assay; read-out: Ki.
`COc1ccc(Nc2ccc3cccc(F)c3n2)cn1` [Compound 5f]: the inhibition constant (Ki) is 41 nM.

Turning to `COc1ccc(Nc2ccc3cc(OCCF)ccc3n2)cn1` [Compound 7j], the Ki was 6.4 nM. The same measure, in the same setting: the figure for `COc1ccc2nc(Nc3ccc(OC)nc3)ccc2c1` [Compound 7f] is 4.6 nM; for `COc1ccc(Nc2ccc3ccc(F)cc3n2)cn1` [Compound 5e] it is 53 nM.

`COc1ccc(Nc2ccc3cc(OC(F)(F)F)ccc3n2)cn1` [Compound 7h]: the Ki was ~100 nM. Still for that read-out and setting: for `COc1ccc(Nc2ccc3cc(O)ccc3n2)cn1` [Compound 7e, 2-((6-Methoxypyridin-3-yl)amino)quinolin-6-ol] the value was 70 nM; for `COc1ccc(Nc2ccc3c(F)cccc3n2)cn1` [Compound 5c], 33 nM; for `COc1ccc(Nc2ccc3cc(F)ccc3n2)cn1` [Compound 5d], 27 nM. Still for that read-out and setting: the figure for `COc1ccc(Nc2ccc3cc([N+](=O)[O-])ccc3n2)cn1` [Compound 7a] is 21 nM; for `COc1ccc(Nc2ccc3cc(OS(=O)(=O)F)ccc3n2)cn1` [Compound 7i] it is 320 nM; for `COc1ccc(Nc2ccc3cc(N)ccc3n2)cn1` [Compound 7c] it is 82 nM. For the molecule `COc1ccc(Nc2ccc3cc(OC(F)F)ccc3n2)cn1` [Compound 7g], the Ki stood at 23 nM. Same read-out and setting: the figure for `COc1ccc(Nc2cc(F)c3ccccc3n2)cn1` [Compound 5b] is 65 nM.

The assay is the same for the next values; noted with them: Table 3; [^3H]BF2846 indirect competitive binding assay; read-out: Ki.
Consider `COc1ccc(Nc2ccc3cc(OC/C=C/I)ccc3n2)cn1` [Compound 8i], for which the Ki was found to be 5 nM. Still for that read-out and setting: for `COc1ccc(Nc2ccc3cc(OCCOCCOCCF)ccc3n2)cn1` [Compound 7l] the value was 49 nM. In the case of `COc1ccc2nc(Nc3ccc(F)nc3)ccc2c1` [Compound 7n], the Ki was 397 nM.

For the molecule `COc1ccc2nc(Nc3ccc(OC(F)(F)F)nc3)ccc2c1` [Compound 7q], the Ki worked out at 10 nM.

`COc1ccc2nc(Nc3ccc(C(F)(F)F)nc3)ccc2c1` [Compound 7o]: the Ki was found to be 182 nM. With `COc1ccc(Nc2ccc3cc(OCC(F)(F)F)ccc3n2)cn1` [Compound 7u], the Ki stood at 44.6 nM. Same read-out and setting: the figure for `COc1ccc(COc2ccc3nc(Nc4ccc(OC)nc4)ccc3c2)cc1` [Compound 8f] is 20 nM.

Regarding `COc1ccc(Nc2ccc3cc(OCC4CCCCC4)ccc3n2)cn1` [Compound 8b], the Ki is > 500 nM. Still for that read-out and setting: the figure for `FCCOc1ccc2nc(Nc3cccnc3)ccc2c1` [Compound 7t] is > 500 nM.

As for `COc1ccc(Nc2ccc3cc(OCCOCCF)ccc3n2)cn1` [Compound 7k], the Ki is 50 nM.

On to `COc1ccc(Nc2ccc3cc(OCc4cccnc4)ccc3n2)cn1` [Compound 8e], for which the Ki was found to be 24 nM. On to `COc1ccc(Nc2ccc3cc(OCCOCCOCCOCCF)ccc3n2)cn1` [Compound 7m], for which the Ki stood at 42 nM. On the same count and under the same terms, the figure for `COc1ccc(Nc2ccc3nc(Nc4ccc(OC)nc4)ccc3c2)cn1` [Compound 8j] is > 1000 nM. On to `COc1ccc2nc(Nc3ccc(SC)nc3)ccc2c1` [Compound 7r], for which the Ki turned out to be 197 nM. Still for that read-out and setting: for `FCCOc1ccc2nc(Nc3ccc(C(F)(F)F)nc3)ccc2c1` [Compound 7p] the value was 81 nM; for `COc1ccc(Nc2ccc3cc(OCc4ccc(F)cc4)ccc3n2)cn1` [Compound 8h], 66.3 nM; for `COc1ccc(Nc2ccc3cc(OCc4ccccc4)ccc3n2)cn1` [Compound 8c], 47.7 nM.

For the molecule `COc1cccc(COc2ccc3nc(Nc4ccc(OC)nc4)ccc3c2)c1` [Compound 8g], the Ki was 36 nM. Still for that read-out and setting: the figure for `COc1ccc(Nc2ccc3cc(OCC4COC4)ccc3n2)cn1` [Compound 8a] is > 500 nM; for `Cc1ccc(Nc2ccc3cc(OCCF)ccc3n2)cn1` [Compound 7s] it is 26.1 nM.

The assay is the same for the next values; noted with them: [^3H]BF2846 competitive assay; read-out: Ki value for α-synuclein fibrils.
On to `COc1ccc(Nc2ccc3cc(OC(F)(F)F)ccc3n2)cn1` [Compound 7h], for which the Ki came to 100 nM.

On to `COc1ccc(Nc2ccc3ccccc3n2)cn1` [Compound 3a], for which the Ki came to 100 nM.
